Results published in EP1332756A2, “Compositions and methods for restoring a normal pattern of imprinting to cells” (priority 1996, dated 1998).
Read-outs that look alike come from different tables or passages of the source.

Tests used:
[1] = Cytotoxicity of 24 hour 5-azaCdR treatment in cell culture; type: cell-based; settings: human, jeg-3 and colo-205 cells, Concentrations of 0.3-3.0 µM
Protocol: (§1) Cell Culture and Treatment With 5-azaCdR. JEG-3 human choriocarcinoma and COLO-205 human colon adenocarcinoma cell lines were obtained from ATTC. Cells were cultured in RPMI 1640, 10% fetal calf serum, 5% CO2, with antibiotics. 10^4-10^5 cells in 6 cm dishes were treated with 0.3-10 µM 5-azaCdR for 24 hours. Cultures were washed in Hank's buffered saline solution and grown to confluence. Concentrations of 0.3-3.0 µM caused minimal cytotoxicity (0-30%).

IGF2 [2] = assay: Allele-specific expression of IGF2 in tumor cells with LOI (RT-PCR, Apa I digestion); type: cell-based, human
Protocol: as §1
(§2) Analysis of Gene Expression. For quantitative analysis of gene expression, total RNA was isolated as described (Chomczynski, P. and Sacchi, N. (1987) Anal. Biochem. 162:156-159), and 10 µg was electrophoresed in 1.2% agarose gels containing formaldehyde, and was transferred to Hybond-N + membranes (Amersham) and hybridized as described with H19 and IGF2 probes (Steenrnan et al. (1994) Nature Genet. 7:433-439). Hybridization with GAPDH was used as a control for RNA loading. […] Each sample was analyzed in duplicate in the presence and absence of reverse transcriptase to exclude DNA contamination. Gels were blotted and hybridized with a ^32P-labeled internal specific oligonucleotide probe (Rainier et al. (1993) Nature 362:747-749), and quantified with a PhosphorImager (Molecular Dynamics).

H19 [3] = assay: Quantitative H19 expression in tumor cells with LOI (Northern blot, PhosphorImager); type: cell-based; settings: Homo sapiens, 24 h, read-out: increase in H19 expression
Protocol: as §1
Analysis of Gene Expression. For quantitative analysis of gene expression, total RNA was isolated as described (Chomczynski, P. and Sacchi, N. (1987) Anal. Biochem. 162:156-159), and 10 µg was electrophoresed in 1.2% agarose gels containing formaldehyde, and was transferred to Hybond-N + membranes (Amersham) and hybridized as described with H19 and IGF2 probes (Steenrnan et al. (1994) Nature Genet. 7:433-439). Hybridization with GAPDH was used as a control for RNA loading. For analysis of allele-specific expression, 0.5 µg RNA was treated with DNase I (Boehringer Mannheim), heated to 95°C for 7 minutes, and RT-PCR was performed as described for both IGF2 and H19 (Rainier et al. (1993) Nature 362:747-749), although nested PCR using primers HP1 and HP2 (Hashimoto et al. (1995) Nat. Genet. 9:109-110) was performed for H19 analysis. PCR products were digested with either Apa I (for IGF2 analysis) or Alu I (for H19 analysis) as described (Tadokoro et al. (1991) Nucleic Acids Res. 19:6967), and electrophoresed on 4% Nusieve-agarose (3:1) gels. Each sample was analyzed in duplicate in the presence and absence of reverse transcriptase to exclude DNA contamination. Gels were blotted and hybridized with a ^32P-labeled internal specific oligonucleotide probe (Rainier et al. (1993) Nature 362:747-749), and quantified with a PhosphorImager (Molecular Dynamics).

H19 [4] = assay: Allele-specific expression of H19 in tumor cells with LOI (RT-PCR, Alu I digestion); type: cell-based, human; settings: JEG-3 cells
Protocol: as §1, §2

H19 promoter CpG island = assay: Southern analysis of methylation of the H19 promoter CpG island (Pst I and Sma I); type: cell-based, human
Protocol: (§3) Analysis of DNA Methylation. For quantitative analysis of DNA methylation, genomic DNA was prepared as described (Rainier et al. (1993) Nature 362:747-749), and Southern analysis of methylation of the H19 promoter CpG island was performed as described (Reik et al. (1994) Hum. Mol. Genet. 4:2379-2385). Filters were hybridized with the 1.8 kb Pst I fragment of H19, which detects imprint-specific methylation (Steenman et al. (1994) Nature Genet. 7:433-439). For analysis of allele-specific methylation, 1 µg DNA was digested with BamH I or with BamH I plus Hpa
In order to determine whether treatment with 5-azaCdR altered methylation of this imprint-specific region, cells were digested with Pst I and Sma I, as described (Reik et al. (1994) Hum. Mol. Genet. 3:1297-1301). Normal cells show approximately 50% methylation, since the paternal allele is methylated and the maternal allele is unmethylated (Steenman et al. (1994) Nature Genet. 7:433-439; Moulton et al. (1994) Nature Genet. 7:440-447; Reik et al. (1994) Hum. Mol. Genet. 3:1297-1301). Cells with LOI show increased methylation, reflecting abnormal methylation of the maternal allele (Steenman et al. (1994) Nature Genet. 7:433-439; Moulton et al. (1994) Nature Genet. 7:440-447; Reik et al. (1994) Hum. Mol. Genet. 3:1297-1301). […]

H19 [5] = assay: Allele-specific methylation of H19 (Hpa II digestion, PCR, Alu I); type: cell-based, human; settings: Hpa II digestion before PCR (Fig. 2B)
Protocol: as §3
After digestion, enzymes were inactivated by heating to 100° for 10 min. 50 ng digested DNA was added to the PCR reaction mix in Buffer F (Invitrogen), containing primers HP1 (5'-TACAACC-ACTGCACTACCTG-3') and H3 (5'-[…]-3') (Hashimoto et al. (1995) Nat. Genet. 9:109-110). One initial cycle (94°C, 4 min.) was followed by 28 cycles of 94°C, 1 min., 60°C, 1 min., 72° C, 1 min. PCR products (227 bp) were digested with Alu I, electrophoresed on 3% Nusieve/1% agarose gels, transferred to Hybond-N+ membranes (Arnersham), and hybridized with an internal oligonucleotide probe HP2 (5'-[…]-3'), and then quantified with a PhosphorImager (Molecular Dynamics). […]

IGF2 [6] = assay: IGF2 methylation after 5-azaCdR treatment; type: cell-based, human; settings: data not shown
Protocol: as §3

cancer cells = assay: Hollow fiber assay of in vivo cytotoxic effects; settings: threshold for referral for xenograft testing
Source text: The compounds were additionally tested for their in vivo cytotoxic effects on cancer cells, using a hollow fiber assay as described in Hollingshead et al. (1995) Life Sci. 57:131-141, herein incorporated by reference. […] Thus, several new potential effective chemotherapeutics were identified for tumors and/or doses not taught in the literature.

IGF2 [7] = settings: mouse cells with maternal disomy for chromosome 7 (Eversole-Cire et al.); cited from earlier work
IGF2 [8] = settings: normal human brain cells (Hu et al.); cited from earlier work
tumor cells with LOI = assay: In vitro effect of NCI lead compounds on LOI (allele ratio), saline as negative control; type: cell-based; settings: for effective concentration / Allele ratio 1.0=complete LOI: in vitro; for Allele ratio 1.0=complete LOI: at the effective concentration, saline 1.0
Protocol: Based on the results showing that 5-aza-2'-deoxycytidine can restore normal imprinting to tumor cells with LOI, an analysis was performed using the drug discovery program described in Weinstein et al. (1997) Science 275:343-349, herein incorporated by reference. […] The highest correlations were as follows: 127716, 619003, 626883, 624646, 145118, 1850512, 626884, 626886, 622810, 176889, 622616, 620358, 619948, 622461, 624645, 15309, 638737, 294734, 112152, 153174 204816, 79037, 628082, 620319 (NCI reference numbers). These are considered lead compounds to determine whether they will restore normal imprinting or could be chemically modified to do so.
As a first test of this approach, the in vitro effect of 12 of these compounds were analyzed with saline as a negative control.

[9] = tested on: Cells having LOI, (Group A); assay: NCI database search for compounds effective against cell lines with LOI (Group A) but not those without LOI (Group B); settings: lead compounds still to be tested

Compound	total effectiveness score > 20 or an in vivo cell kill effect seen directly (cancer cells)	effective concentration (tumor cells with LOI)	Allele ratio 1.0=complete LOI (tumor cells with LOI)	also measured
Nc1ncn([C@H]2C[C@H](O)[C@@H](CO)O2)c(=O)n1 [5-azaCdR, 5-aza-2'-deoxycytidine]	scored above the threshold for referral for xenograft testing	–	–	cytotoxicity at 24 h [1]: 0 to 30%; allelic expression of IGF2 (IGF2 [2]; COLO-205 colorectal carcinoma cells (data not shown)): a switch from biallelic to predominately monoallelic expression of IGF2; allelic expression of IGF2 (IGF2 [2]; JEG-3 cells, single 24 hr treatment with increasing doses (0.3, 0.6, 1.0 µM)): unequal expression of the two IGF2 alleles, with preferential expression of the allele lacking the Apa I polymorphic site; fold induction at 1 µM (H19 [3]; COLO-205 cells, 1.0 µM (data not shown)): 20; fold induction at 0.3 µM (H19 [3]; JEG-3 cells, 0.3 µM): 30; fold induction at 1 µM (H19 [3]; JEG-3 cells, 1.0 µM): 50; allele-specific expression of H19 (H19 [4]): monoallelic expression of the allele containing the Alu I polymorphic site; changes in DNA methylation of the H19 CpG island (H19 promoter CpG island; COLO-205 (data not shown)): reproducible; methylation of the H19 CpG island (H19 promoter CpG island; after treatment with 0.3 or 1.0 µM (Fig. 2A), normal cells approximately 50%): approximately 50%; allele specificity of altered H19 methylation (H19 [5]): one allele was preferentially affected; IGF2 methylation (IGF2 [6]): not affected; expression of the maternal IGF2 gene (IGF2 [7]): epigenetic activation of the normally silent maternal IGF2 gene; allelic expression of IGF2 (IGF2 [8]): switched IGF2 from a pattern of preferential expression of one allele to equal biallelic expression
CC1=CC(=O)C(C)=CC1=O [compound 15309, phlorone]	scored above the threshold for referral for xenograft testing	10^-3M	1.3	–
C/C=C1/C(=O)O[C@]23C=C[C@@H]4C(C(=O)OC)=CO[C@H](O[C@@H]12)[C@@H]43 [compound 112152, plumericine]	scored above the threshold for referral for xenograft testing	10^-3M	1.2	–
Nc1ccccc1 [compound 176889, benzenamine]	–	–	3.7	alteration in imprinting and/or cytotoxic effects (tumor cells with LOI; additional drugs tested): at least some alteration in imprinting and/or cytotoxic effects
C#CC[C@@]12CC(=O)C[C@@H]1CCC1(C2)OCCO1.C#CC[C@]12CC(=O)CC[C@H]1CC(=O)C2 [compound 619948]	–	10^-4M	1.8	–
O=C1ON(Cc2ccccc2)C(c2ccccc2)N1c1ccccc1 (stereo not drawn) [compound 624645]	–	10^-4M	1.8	–
COc1nc(NC2OC(CO)C(O)C(O)C2O)c(N)c(=O)[nH]1 (stereo not drawn) [compound 624646]	scored above the threshold for referral for xenograft testing	10^-4M	2.2	–
CC(=O)O[C@@H]1[C@@H](C)/C=C/C(C)(C)[C@H](OC(C)=O)C[C@@H](OC(C)=O)/C(C)=C/[C@H]2[C@@H](OC(=O)c3ccccc3)[C@@H](C)C[C@]12OC(C)=O [compound 666860, euphornin D]	–	–	–	Predicted concentration [9]: 10^-4M
CC(C)/C(Cl)=N\OC(=O)NNc1ccccc1 [compound 682841]	–	–	–	Predicted concentration [9]: 10^-4M
Blue Platinum uracil [compound 180512]	–	10^-2M	45.0	alteration in imprinting and/or cytotoxic effects (tumor cells with LOI): at least some alteration in imprinting and/or cytotoxic effects
Methyl-13-hydroxy-15-oxokaurenoate [compound 620358]	scored above the threshold for referral for xenograft testing	10^-4M	2.6	alteration in imprinting and/or cytotoxic effects (tumor cells with LOI; additional drugs tested): at least some alteration in imprinting and/or cytotoxic effects
aspiculamycin HCL [200692-A]	–	–	–	Predicted concentration [9]: 10^-2M
cis-CCNU [compound 153174]	–	10^-4M	1.6	–
gndimacrin [252940-S]	–	–	–	Predicted concentration [9]: 10^-4M
lankacyclin [compound 145118]	–	10^-4M	1.8	alteration in imprinting and/or cytotoxic effects (tumor cells with LOI; additional drugs tested): at least some alteration in imprinting and/or cytotoxic effects
